The values below come from patent publication US20240261274A1, “TREATMENT OF MYC-DRIVEN CANCERS WITH GSPT1 DEGRADERS” (MONTE ROSA THERAPEUTICS, INC., priority 2021, published 2024).

One test deals with GSPT1 (Homo sapiens, UniProt P15170+Q96SW2). The experiment in a line: GSPT1 levels in tumors, PD analysis by western blotting (compound 8). It is filed as in vivo, mice. More on the design: from tissue; host or cells: NCI-H1155 subcutaneous xenograft tumours from BALB/c nude mice. The settings on record: 75 mg/kg and 37 mg/kg, respectively; 24 hr post third dose. How it is done: For the PD analysis, tumors were harvested 24 hr post third dose and GSPT1 total levels in tumors were determined by western blotting analysis. GADPH levels were measured as control Briefly, 30-50 mg of tumor was placed in 350 μL of RIPA buffer containing 1% Protease Inhibitor Cocktail and 1% Phosphatase Inhibitor Cocktail 2. Tumors were grinded using the Tissuelyser LT at 50 Hz for 5 min. the tissue lysates were kept on ice for 30 min, centrifuged at 12,000 rpm at 4° C. for 10 min and protein concentration measured using the Pierce™ BCA Protein Assay Kit as recommended by the manufacturer. Samples were diluted to the same final concentration (at 4 μg/μL) using RIPA buffer plus 4×LDS Sample Buffer and 10× Sample Reducing Agent and subsequently heat denatured at 100° C. for 10 min. Western blot analysis was performed using 5 μL per slot for each sample, loaded on a NuPAGE® 4-12% Bis-Tris gel, probing for GSPT1 (Sigma-HPA052488; 1/250 dilution) and GAPDH as loading control (CST-5174; 1/2000 dilution).

The test system of test [1] is NCI-1155 NSCLC cell line derived xenograft. The test can be described thus: NCI-H1155 NSCLC CDX efficacy study (Compound 345). It is filed as in vivo, immunodeficient mice. The settings on record: oral daily 1, 3 and 10 mg/kg. On the procedure: Cell line derived xenograft (CDX) models were produced for the NCI-1155 NSCLC cell line in immunodeficient mice. Oral dosing of Compound 345 was performed daily at doses of 1 mg/kg, 3 mg/kg, and 10 mg/kg with a no-drug vehicle control. Tumor volumes were measured (mm^3) at days 3, 7, 10, 14, and 17.
(§1) In vivo efficacy study: NCI-H1155, MM1 S, WSU-DLCL2, DOHH-2 cells were maintained in vitro in individual medium and conditions as recommended by the providers and incubated at 37° C. in an atmosphere of 5% CO2 in air. 0.5 million (NCI-H1155), 10 million (MM1S) or 5 million (WSU-DLCL2 and DOHH-2) cells were resuspended in typically 0.1-0.2 mL of PBS with Matrigel (50:50) and were inoculated into 6-8 weeks old BALB/c nude female (NCI-H115, WSU-DLCL2), NOD/SCID (MM1S) or CB-17SCID (DOHH-2) mice and allowed to grow to 150-200 mm3 in size. Mice were dosed orally (PO) and daily (QD) with either vehicle or Compound 345 typically at 1.0 mg/kg, 3.0 mg/kg and 10 mg/kg. […] Tumor volumes were measured at least twice weekly during the treatment period using a caliper and the volume was expressed in mm3 using the formula: V=0.5 a×b2 where a and b were the long and short diameters of the tumor, respectively. […] Data are expressed as the mean±SEM. All data was analyzed using GraphPad Prism 8.1.2 (GraphPad).

The test system of test [2] is WSU-DLCL2 triple hit lymphoma cell line derived xenograft. The experiment in a line: WSU-DLCL2 triple hit lymphoma CDX efficacy study. Format: in vivo, immunodeficient mice. The settings on record: oral daily 3 mg/kg and 10 mg/kg. How it is done:
Additionally, cell line derived xenograft (CDX) models were produced for the triple hit lymphoma cell line (WSU-DLCL2) in immunodeficient mice. Oral dosing of Compound 345 was performed daily at doses of 3 mg/kg and 10 mg/kg as well as the CHOP combination (a well-known lymphoma treatment regimen) and a no-drug vehicle control. Tumor volumes were measured (mm^3) at regular intervals over the course of up to 30 days depending on the animal.
as §1, with “size.” for “size. Mice were dosed orally (PO) and daily (QD) with either vehicle or Compound 345 typically at 1.0 mg/kg, 3.0 mg/kg and 10 mg/kg.”

GSPT1, sequence (P15170 whole entry): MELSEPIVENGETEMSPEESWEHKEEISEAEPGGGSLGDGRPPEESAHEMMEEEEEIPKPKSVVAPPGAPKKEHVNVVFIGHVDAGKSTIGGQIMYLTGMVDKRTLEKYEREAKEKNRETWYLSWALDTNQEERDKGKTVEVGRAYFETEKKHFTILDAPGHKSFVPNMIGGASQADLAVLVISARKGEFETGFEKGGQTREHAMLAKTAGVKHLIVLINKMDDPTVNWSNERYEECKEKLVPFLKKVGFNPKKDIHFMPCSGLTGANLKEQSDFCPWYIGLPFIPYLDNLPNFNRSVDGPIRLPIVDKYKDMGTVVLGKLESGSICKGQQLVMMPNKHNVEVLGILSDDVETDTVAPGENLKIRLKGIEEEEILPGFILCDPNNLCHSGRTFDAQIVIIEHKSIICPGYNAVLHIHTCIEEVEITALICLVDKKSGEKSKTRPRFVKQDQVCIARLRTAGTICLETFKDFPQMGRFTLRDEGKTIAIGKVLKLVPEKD
GSPT1, sequence (Q96SW2 whole entry): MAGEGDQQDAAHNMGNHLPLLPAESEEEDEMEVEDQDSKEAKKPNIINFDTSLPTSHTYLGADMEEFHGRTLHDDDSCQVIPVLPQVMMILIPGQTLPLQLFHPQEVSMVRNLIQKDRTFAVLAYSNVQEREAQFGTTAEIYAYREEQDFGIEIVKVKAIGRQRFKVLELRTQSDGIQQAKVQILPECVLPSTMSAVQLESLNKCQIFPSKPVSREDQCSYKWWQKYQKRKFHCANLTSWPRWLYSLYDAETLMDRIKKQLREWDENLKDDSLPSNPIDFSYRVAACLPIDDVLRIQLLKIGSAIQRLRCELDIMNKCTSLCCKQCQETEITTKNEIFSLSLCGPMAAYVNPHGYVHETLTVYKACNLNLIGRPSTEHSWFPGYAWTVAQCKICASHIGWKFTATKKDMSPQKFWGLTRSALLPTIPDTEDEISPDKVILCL
GSPT1, sequence (Q16531 whole entry partner): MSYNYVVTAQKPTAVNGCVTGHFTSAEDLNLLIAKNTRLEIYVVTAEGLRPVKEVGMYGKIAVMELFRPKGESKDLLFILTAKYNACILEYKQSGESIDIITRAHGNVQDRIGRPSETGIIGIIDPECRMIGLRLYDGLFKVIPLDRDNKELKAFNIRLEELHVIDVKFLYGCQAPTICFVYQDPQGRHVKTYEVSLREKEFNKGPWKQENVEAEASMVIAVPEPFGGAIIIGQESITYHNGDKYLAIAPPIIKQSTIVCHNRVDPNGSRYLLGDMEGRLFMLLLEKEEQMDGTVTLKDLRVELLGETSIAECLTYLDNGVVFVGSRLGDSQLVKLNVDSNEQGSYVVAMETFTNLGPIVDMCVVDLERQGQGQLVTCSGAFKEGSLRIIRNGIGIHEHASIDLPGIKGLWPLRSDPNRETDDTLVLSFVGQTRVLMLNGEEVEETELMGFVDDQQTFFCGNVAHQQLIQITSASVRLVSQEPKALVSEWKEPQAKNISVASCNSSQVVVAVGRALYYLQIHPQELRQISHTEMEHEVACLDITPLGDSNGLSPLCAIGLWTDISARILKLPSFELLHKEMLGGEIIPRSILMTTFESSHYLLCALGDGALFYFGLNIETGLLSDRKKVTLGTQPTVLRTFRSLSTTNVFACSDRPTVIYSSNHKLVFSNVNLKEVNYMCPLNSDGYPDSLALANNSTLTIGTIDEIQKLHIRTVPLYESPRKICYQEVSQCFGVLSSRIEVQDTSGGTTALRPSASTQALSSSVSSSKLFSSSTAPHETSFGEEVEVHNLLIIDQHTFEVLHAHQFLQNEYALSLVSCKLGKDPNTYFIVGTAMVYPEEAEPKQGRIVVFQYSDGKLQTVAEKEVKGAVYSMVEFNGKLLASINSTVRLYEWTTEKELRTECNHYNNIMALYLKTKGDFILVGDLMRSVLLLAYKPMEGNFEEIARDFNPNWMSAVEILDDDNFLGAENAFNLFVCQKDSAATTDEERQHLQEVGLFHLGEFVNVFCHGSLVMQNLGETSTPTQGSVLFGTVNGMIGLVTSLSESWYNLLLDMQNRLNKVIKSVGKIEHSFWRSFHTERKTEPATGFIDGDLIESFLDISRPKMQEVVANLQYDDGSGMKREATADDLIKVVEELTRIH

For `Cc1ccc(NC(=O)NCc2ccc3c(c2)C(=O)N(C2CCC(=O)NC2=O)C3)cc1Cl` (stereo not drawn) [Compound 8], the “GSPT1 levels in tumors” value on GSPT1 is reported as “no or insignificant amounts of GSPT1”.
Regarding `O=C1CCC(N2Cc3ccc(COC(=O)Nc4cc(OC(F)(F)F)ccc4F)cc3C2=O)C(=O)N1` (stereo not drawn) [Compound 345, (2-(2,6-dioxopiperidin-3-yl)-3-oxoisoindolin-5-yl)methyl(2-fluoro-5-(trifluoromethoxy)phenyl)carbamate], the tumor volume entry in test [1] was “anti-tumor activity and regression”; in test [2], “anti-tumor activity”.
